{"source": "patent US20080235824A1", "about": "“Use of Esterase Genes as Selectable Markers for Transforming Plant Cells” (priority 2006, published 2008)", "key": {"[1]": {"tested_on": "geranium petiole explants", "test": "Survival of geranium petiole explants on regeneration medium with detergents", "assay_type": "cell-based, Pelargonium X hortorum", "settings": "for Survival of geranium petiole explants on regeneration medium: surviving/total explants", "protocol": "Tween 20, a nonionic, fatty acid ester detergent, was evaluated as a potential selective agent for use in geranium (Pelargonium X hortorum) transformation experiments by placing geranium petiole explants into tissue culture with the addition to Tween 20 to the regeneration (shooting) medium normally used in geranium transformations (Robichon et al., 1995). Tween 20 was added at three concentrations: 1%, 0.1% and 0.01%. Each treatment consisted of 40 sterilized petiole explants placed in four tissue culture plates carrying 10 explants each. Survival of the explants was assayed weekly over four weeks on these media. Potential selective agent Span 20, also a nonionic, fatty acid ester detergent, was similarly evaluated, except that concentrations of 1%, 0.5% and 0.25% were evaluated over a twelve week period of time. The nonionic detergent Triton X-100, which is not a fatty acid ester detergent, was included for comparative purposes."}, "rice grain explants": {"tested_on": "rice grain explants", "test": "Survival of rice grain explants on regeneration medium with Span 20", "assay_type": "cell-based, Oryza sativa japonica var. TP-309", "settings": "for Survival of rice grain explants on regeneration medium: surviving/total explants", "protocol": "Span 20 was evaluated as a potential selective agent for use in transformation of rice (Oryza sativa japonica var. TP-309) in a manner similar to that described in Examples 1 and 2, except that the regeneration (shooting) medium used was appropriate for regeneration of rice from callus produced from seeds (Hiei et al., 1997). Selection of rice normally requires longer periods of time than geranium or tomato."}, "[2]": {"tested_on": "tobacco cultivar Xanthi leaf explants", "test": "Agrobacterium transformation of tobacco with selection on detergent or kanamycin", "assay_type": "cell-based, Nicotiana tabacum", "settings": "for Transformation frequency (%): confirmed by PCR", "description": "Transgenic tobacco (Nicotiana tabacum) cultivar “Xanthi” plants were created using the Agrobacterium tumefaciens DNA delivery method [Horsch et al., 1985] using pIPG833. Selection was on 1% or on 0.05% Tween 20 added to both shoot and root regeneration media. As a control for comparative purposes, pIPG786 was used (carrying the nptII gene for kanamycin resistance) for transformation and 100 micrograms/ml kanamycin was used for selection.\nTransgenic tobacco (Nicotiana tabacum) cultivar “Xanthi” plants were created using the Agrobacterium tumefaciens DNA delivery method [Horsch et al., 1985] using pIPG833. Selection was on 1% or on 0.05% Span 20 added to both shoot and root regeneration media.\nTransgenic tobacco (Nicotiana tabacum) cultivar “Xanthi” plants were created using the Agrobacterium tumefaciens DNA delivery method [Horsch et al., 1985] using pIPG875. Selection was on 1% Span 20 added to the shoot regeneration medium and 0.05% Span 20 added to the root regeneration medium."}, "[3]": {"tested_on": "geranium cv. Avenida leaf petiole explants", "test": "Agrobacterium transformation of geranium with selection on Span 20 or hygromycin", "assay_type": "cell-based, Pelargonium X hortorum", "settings": "for No. of rooted shoots / Transformation frequency (%) / No. of independent petiole explants forming shoots: geranium Avenida, pIPG833 bovine PGE, 160 explants; for Transformation frequency (%): confirmed by PCR; for No. of independent petiole explants forming shoots: half in root medium; for Leaf petioles killed: Span 20 at 1%", "description": "Transgenic geranium (Pelargonium X hortorum) cv. “Avenida” plants were created using the Agrobacterium tumefaciens DNA delivery method [Riggs et al., 2001; Sun et al., 2006] using pIPG833. Selection of leaf petiole explants was on 1%, 0.5% and 0.25% Span 20 added to shoot regeneration medium; beginning after three weeks, any shoots that emerged were excised from the petiole piece and transferred to root regeneration medium supplemented with Span at one half the concentration used in the shoot regeneration medium. As a control for comparative purposes, pIPG835 was used (carrying the hygromycin antibiotic resistance gene) for transformation and 10 micrograms/ml hygromycin was used for selection. Span 20 at 1% concentration killed 35% of the leaf petioles after three weeks, and 100% of the petioles after 10 weeks, and no shoots emerged. Span 20 at 0.5% concentration was highly efficient for geranium transformation, allowing no escapes and giving the same confirmed transformation frequency as Span 20 at 0.25%."}, "[4]": {"tested_on": "rice var. TP-309 callus produced from seeds", "test": "Agrobacterium transformation of rice with selection on Span 20", "assay_type": "cell-based, Oryza sativa japonica var. TP-309", "settings": "for No. of rooted shoots / Transformation frequency (%) / No. of shoots emerged from seed-derived callus: rice TP-309, pIPG833 bovine PGE, 60 explants; for Transformation frequency (%): confirmed by PCR; for No. of shoots emerged from seed-derived callus: half in root medium", "description": "Transgenic rice (Oryza sativa japonica var. TP-309) plants were created using the Agrobacterium tumefaciens DNA delivery method and pIPG833, using callus produced from seeds (Hiei et al., 1997). Selection of was on 1% and 0.5% Span 20 added to shoot regeneration medium; any shoots that emerged were excised from the callus and transferred to root regeneration medium supplemented with Span 20 at one half the concentration used in the shoot regeneration medium. Span 20 at 1% concentration killed over 90% of the callus pieces after 15 weeks and since no shoots emerged, the experiment was terminated. However, three shoots out of 60 rice seeds initially placed into tissue culture emerged on Span 20 and two of these were positive for bovine PGE."}, "[5]": {"tested_on": "tobacco cultivar Xanthi leaf explants", "test": "Agrobacterium transformation of tobacco with selection on detergent or kanamycin", "assay_type": "cell-based, Nicotiana tabacum", "settings": "pIPG833 bovine PGE, 0.5% Span 20, 70 explants"}, "[6]": {"settings": "tobacco Xanthi, nematode lipase (pIPG875), 1% Span 20 shoot medium, 0.05% root medium, 50 explants"}, "[7]": {"settings": "tobacco Xanthi, pIPG833 bovine PGE, 0.5% Span 20, 70 explants"}, "[8]": {"settings": "tobacco Xanthi, pIPG833 bovine PGE, 1% Span 20, 75 explants"}}}
{"smiles": "CCCCCCCCCCCC(=O)OCC(O)C1OCC(O)C1O", "note": "(stereo not drawn) [Span 20]", "values": [{"measurement": "Survival of geranium petiole explants on regeneration medium", "setting": "[1]; 0.5% detergent, Week 1", "value": "46/46"}, {"measurement": "Survival of geranium petiole explants on regeneration medium", "setting": "[1]; 0.5% detergent, Week 3", "value": "35/46"}, {"measurement": "Survival of geranium petiole explants on regeneration medium", "setting": "[1]; 0.5% detergent, Week 7", "value": "23/46"}, {"measurement": "Survival of geranium petiole explants on regeneration medium", "setting": "[1]; 0.5% detergent, Week 12", "value": "5/46"}, {"measurement": "Survival of geranium petiole explants on regeneration medium", "setting": "[1]; 1% detergent, Week 1", "value": "114/114"}, {"measurement": "Survival of geranium petiole explants on regeneration medium", "setting": "[1]; 1% detergent, Week 3", "value": "74/114"}, {"measurement": "Survival of geranium petiole explants on regeneration medium", "setting": "[1]; 1% detergent, Week 7", "value": "11/114"}, {"measurement": "Survival of geranium petiole explants on regeneration medium", "setting": "[1]; 1% detergent, Week 12", "value": "0/114"}, {"measurement": "Killing of geranium explants in tissue culture (in words)", "setting": "[1]; summary of Table 1", "value": "required twelve weeks to completely kill all geranium explants at the 1% level"}, {"measurement": "Survival of rice grain explants on regeneration medium", "setting": "rice grain explants; 0.5% Span 20, Week 4", "value": "60/60"}, {"measurement": "Survival of rice grain explants on regeneration medium", "setting": "rice grain explants; 0.5% Span 20, Week 14", "value": "12/60"}, {"measurement": "Survival of rice grain explants on regeneration medium", "setting": "rice grain explants; 0.5% Span 20, Week 20", "value": "2/60"}, {"measurement": "Survival of rice grain explants on regeneration medium", "setting": "rice grain explants; 1% Span 20, Week 4", "value": "60/60"}, {"measurement": "Survival of rice grain explants on regeneration medium", "setting": "rice grain explants; 1% Span 20, Week 14", "value": "5/60"}, {"measurement": "Survival of rice grain explants on regeneration medium", "setting": "rice grain explants; 1% Span 20, Week 20", "value": "0/60"}, {"measurement": "Killing of rice explants in tissue culture (in words)", "setting": "rice grain explants; 1% Span 20, summary of Table 3", "value": "completely killed all rice explants in twenty weeks"}, {"measurement": "Tissue provided with pIPG833 producing shoots", "setting": "[2]; regeneration medium with 0.05% detergent", "value": 41, "unit": "%"}, {"measurement": "Tobacco leaf material provided with bovine PGE on pIPG833 producing green shoots", "setting": "[2]; regeneration medium with 1% detergent", "value": 17, "unit": "%"}, {"measurement": "No. of independent calli forming shoots", "setting": "[2]; [6]", "value": 23}, {"measurement": "No. of rooted shoots", "setting": "[2]; [6]", "value": 10}, {"measurement": "Transformation frequency (%)", "setting": "[2]; [6]", "value": 39, "unit": "%"}, {"measurement": "Transformation efficiency", "setting": "[2]; tobacco Xanthi, pIPG833, detergent at the 0.05% level", "value": 12, "unit": "%"}, {"measurement": "No. of independent calli forming shoots", "setting": "[2]; [7]", "value": 29}, {"measurement": "Transformation frequency (%)", "setting": "[2]; [7]", "value": 12, "unit": "%"}, {"measurement": "No. of rooted shoots", "setting": "[2]; [8]", "value": 13}, {"measurement": "Transformation frequency (%)", "setting": "[2]; [8]", "value": 8, "unit": "%"}, {"measurement": "No. of independent calli forming shoots", "setting": "[2]; tobacco Xanthi, pIPG833 bovine PGE, 1% Span 20 in shoot and root media, 75 explants", "value": 13}, {"measurement": "Fate of shoots on rooting medium", "setting": "[2]; tobacco, pIPG875 nematode lipase, 0.05% Span 20 on rooting medium", "value": "more than half of the shoots died"}, {"measurement": "No. of rooted shoots", "setting": "[3]; 0.25% Span 20", "value": 33}, {"measurement": "Transformation frequency (%)", "setting": "[3]; 0.25% Span 20", "value": 4, "unit": "%"}, {"measurement": "No. of independent petiole explants forming shoots", "setting": "[3]; 0.25% Span 20 shoot medium", "value": 33}, {"measurement": "No. of rooted shoots", "setting": "[3]; 0.5% Span 20", "value": 6}, {"measurement": "Transformation frequency (%)", "setting": "[3]; 0.5% Span 20", "value": 4, "unit": "%"}, {"measurement": "No. of independent petiole explants forming shoots", "setting": "[3]; 0.5% Span 20 shoot medium", "value": 6}, {"measurement": "No. of rooted shoots", "setting": "[3]; 1% Span 20", "value": 0}, {"measurement": "Transformation frequency (%)", "setting": "[3]; 1% Span 20", "value": 0, "unit": "%"}, {"measurement": "No. of independent petiole explants forming shoots", "setting": "[3]; 1% Span 20 shoot medium", "value": 0}, {"measurement": "Nontransgenic escape plants", "setting": "[3]; geranium, pIPG833, Span 20 at 0.25% in shooting medium and 0.125% in rooting medium", "value": 81, "unit": "%"}, {"measurement": "Leaf petioles killed", "setting": "[3]; geranium, pIPG833, after 10 weeks", "value": 100, "unit": "%"}, {"measurement": "Leaf petioles killed", "setting": "[3]; geranium, pIPG833, after three weeks", "value": 35, "unit": "%"}, {"measurement": "No. of rooted shoots", "setting": "[4]; 0.5% Span 20", "value": 2}, {"measurement": "Transformation frequency (%)", "setting": "[4]; 0.5% Span 20", "value": 3, "unit": "%"}, {"measurement": "No. of shoots emerged from seed-derived callus", "setting": "[4]; 0.5% Span 20 shoot medium", "value": 3}, {"measurement": "No. of rooted shoots", "setting": "[4]; 1% Span 20", "value": 0}, {"measurement": "Transformation frequency (%)", "setting": "[4]; 1% Span 20", "value": 0, "unit": "%"}, {"measurement": "No. of shoots emerged from seed-derived callus", "setting": "[4]; 1% Span 20 shoot medium", "value": 0}, {"measurement": "Callus pieces killed", "setting": "[4]; rice, pIPG833, Span 20 at 1%, after 15 weeks", "value": "over 90%"}, {"measurement": "No. of rooted shoots", "setting": "[5]", "value": 28}]}
